In the NIST ThermoML archive (doi:10.1016/j.jct.2016.04.003):

Experiment: xn = mol fraction of the nth substance listed
Conditions: for surface tension liquid-gas: Drop volume; for viscosity / speed of sound / mass density: 99 kPa, Liquid; for viscosity: Capillary tube (Ostwald / Ubbelohde) method; for speed of sound: Frequency=3 MHz, Sing-around technique in a fixed-path interferometer; for mass density: Vibrating tube method

CCC[n+]1ccccc1.F[B-](F)(F)F [1-propylpyridinium tetrafluoroborate] + O
Conditions	mass density [kg/m3]	speed of sound [m/s]	surface tension liquid-gas [mN/m]	viscosity [mPa·s]
313.15 K, x1 = 0.0185	1026	1559	–	–
313.15 K, x1 = 0.028	–	–	56	–
313.15 K, x1 = 0.0287	1041.1	1568.7	–	–
313.15 K, x1 = 0.0466	1063.1	1580.6	–	–
313.15 K, x1 = 0.0492	–	–	–	0.843
313.15 K, x1 = 0.0551	–	–	53.7	–
313.15 K, x1 = 0.0766	1091.4	1593	–	–
313.15 K, x1 = 0.0952	–	–	–	1.122
313.15 K, x1 = 0.0964	1105.8	1598.5	–	–
313.15 K, x1 = 0.1008	–	–	51.7	–
313.15 K, x1 = 0.1522	–	–	50.5	–
313.15 K, x1 = 0.1948	–	–	–	1.755
313.15 K, x1 = 0.1965	–	–	49.9	–
313.15 K, x1 = 0.2011	1154.3	1610.4	–	–
313.15 K, x1 = 0.2588	–	–	–	2.326
313.15 K, x1 = 0.2858	1176.6	1610.4	–	–
313.15 K, x1 = 0.2947	–	–	49.8	–
313.15 K, x1 = 0.3451	–	–	49.6	–
313.15 K, x1 = 0.3891	–	–	–	4.172
313.15 K, x1 = 0.3968	–	–	49.5	–
313.15 K, x1 = 0.3993	1196.3	1607.7	–	–
313.15 K, x1 = 0.4779	–	–	49.5	–
313.15 K, x1 = 0.4894	–	–	–	7.412
313.15 K, x1 = 0.4979	1208.2	1604.7	–	–
313.15 K, x1 = 0.5772	1215.5	1602.4	–	–
313.15 K, x1 = 0.5827	–	–	49.6	–
313.15 K, x1 = 0.5942	–	–	–	10.92
313.15 K, x1 = 0.6015	1217.5	1601.9	–	–
313.15 K, x1 = 0.6695	1222.5	1600.6	–	–
313.15 K, x1 = 0.6846	–	–	49.6	–
313.15 K, x1 = 0.6952	–	–	–	16.2
313.15 K, x1 = 0.7309	1226.5	1599.9	–	–
313.15 K, x1 = 0.7771	1229.4	1599.7	–	–
313.15 K, x1 = 0.7861	–	–	49.6	–
313.15 K, x1 = 0.7903	–	–	–	23.05
313.15 K, x1 = 0.8395	1232.9	1600.3	–	–
313.15 K, x1 = 0.8862	–	–	49.6	–
313.15 K, x1 = 0.8982	–	–	–	35.15
313.15 K, x1 = 0.9054	1236.7	1601.8	–	–
313.15 K, x1 = 0.9425	–	–	49.7	–
313.15 K, x1 = 0.943	–	–	–	43.35
313.15 K, x1 = 0.9633	1240.1	1604.2	–	–
313.15 K, x1 = 1	1242.4	1606.3	49.8	56.02
323.15 K, x1 = 0.0185	1020.8	1563.2	–	–
323.15 K, x1 = 0.028	–	–	54.5	–
323.15 K, x1 = 0.0287	1035.6	1569.4	–	–
323.15 K, x1 = 0.0466	1057	1576.8	–	–
323.15 K, x1 = 0.0492	–	–	–	0.714
323.15 K, x1 = 0.0551	–	–	52.2	–
323.15 K, x1 = 0.0766	1084.7	1583.8	–	–
323.15 K, x1 = 0.0952	–	–	–	0.889
323.15 K, x1 = 0.0964	1098.9	1586.7	–	–
323.15 K, x1 = 0.1008	–	–	50.4	–
323.15 K, x1 = 0.1522	–	–	49.2	–
323.15 K, x1 = 0.1948	–	–	–	1.379
323.15 K, x1 = 0.1965	–	–	48.6	–
323.15 K, x1 = 0.2011	1146.9	1591.5	–	–
323.15 K, x1 = 0.2588	–	–	–	1.808
323.15 K, x1 = 0.2858	1169.2	1589.7	–	–
323.15 K, x1 = 0.2947	–	–	48.7	–
323.15 K, x1 = 0.3451	–	–	48.6	–
323.15 K, x1 = 0.3891	–	–	–	3.105
323.15 K, x1 = 0.3968	–	–	48.5	–
323.15 K, x1 = 0.3993	1189	1586	–	–
323.15 K, x1 = 0.4779	–	–	48.5	–
323.15 K, x1 = 0.4894	–	–	–	5.345
323.15 K, x1 = 0.4979	1200.9	1582.6	–	–
323.15 K, x1 = 0.5772	1208.2	1580	–	–
323.15 K, x1 = 0.5827	–	–	48.7	–
323.15 K, x1 = 0.5942	–	–	–	8.242
323.15 K, x1 = 0.6015	1210.1	1579.4	–	–
323.15 K, x1 = 0.6695	1215.1	1577.7	–	–
323.15 K, x1 = 0.6846	–	–	48.7	–
323.15 K, x1 = 0.6952	–	–	–	12.05
323.15 K, x1 = 0.7309	1219.2	1576.7	–	–
323.15 K, x1 = 0.7771	1222.1	1576.2	–	–
323.15 K, x1 = 0.7861	–	–	48.8	–
323.15 K, x1 = 0.7903	–	–	–	15.97
323.15 K, x1 = 0.8395	1225.8	1576.6	–	–
323.15 K, x1 = 0.8862	–	–	48.9	–
323.15 K, x1 = 0.8982	–	–	–	23.99
323.15 K, x1 = 0.9054	1229.6	1578.1	–	–
323.15 K, x1 = 0.9425	–	–	48.9	–
323.15 K, x1 = 0.943	–	–	–	28.38
323.15 K, x1 = 0.9633	1233	1580.8	–	–
323.15 K, x1 = 1	1235.3	1583.3	49	36.99
